According to publication PMC7654512 (Bioorganic & medicinal chemistry letters, 2019):

Assays:
[1] = Hydrolytic stability of L-Dopa phosphoramidate prodrugs; assay type: physicochemical; settings: for hydrolytic stability relative to 1b (in words): 37 °C, 31P NMR, pH not stated at the place
[2] = L-Dopa alone, systemic circulation; cited from earlier work

Compound: O=C([O-])CCOP(=O)([O-])N[C@@H](Cc1ccc(O)c(O)c1)C(=O)[O-].[K+].[K+].[K+] [1c]
- hydrolytic stability relative to 1b (in words) [1]: unstable compared to 1b

Compound: CC(=O)N[C@@H](COP(=O)([O-])N[C@@H](Cc1ccc(O)c(O)c1)C(=O)[O-])C(=O)[O-].[K+].[K+].[K+] [1b]
- half-life ([1]; buffer, pH 7.4, half-life (t1/2) of hydrolysis, pH 7.4, 37 °C, 31P NMR over 16 h, internal standard TPPO, first-order kinetics): ~10 h

Compound: N[C@@H](Cc1ccc(O)c(O)c1)C(=O)O [L-Dopa, Levodopa]
- circulating half-life [2]: approximately 1 h

Compound: CC(=O)N[C@H](C(=O)[O-])[C@@H](C)OP(=O)([O-])N[C@@H](Cc1ccc(O)c(O)c1)C(=O)[O-].[K+].[K+].[K+] [1a]
- hydrolytic stability relative to 1b (in words) [1]: considerably less stable than the serine analog 1b

Compound: CC(=O)NCCOP(=O)([O-])N[C@@H](Cc1ccc(O)c(O)c1)C(=O)[O-].[K+].[K+] [1e]
- hydrolytic stability (in words) ([1]; pH 7.4, 37 °C, 31P NMR over 16 h): stable
